# Measured values taken from patent US11780845B2 (Relay Therapeutics, Inc., priority 2019, dated 2023).
# Biological target: FGFR2 (Homo sapiens (Human), UniProt P21802)
# Test: FGFR2 Biochemical Caliper Assay
# Procedure: Compounds of the present invention were also tested in a FGFR2 Biochemical Caliper Assay. Compounds were prepared in 10 mM DMSO solution and serially diluted into 11 concentrations by 3-fold dilution. […] 5 uL of ATP solution (100 uM) was added to start the reaction and the plate was incubated for 90 minutes, then 70 uL of stopping buffer (0.5M EDTA) was added to terminate the reaction. Each well was analyzed using EZ reader.
# Sequence of FGFR2 (P21802 22-821): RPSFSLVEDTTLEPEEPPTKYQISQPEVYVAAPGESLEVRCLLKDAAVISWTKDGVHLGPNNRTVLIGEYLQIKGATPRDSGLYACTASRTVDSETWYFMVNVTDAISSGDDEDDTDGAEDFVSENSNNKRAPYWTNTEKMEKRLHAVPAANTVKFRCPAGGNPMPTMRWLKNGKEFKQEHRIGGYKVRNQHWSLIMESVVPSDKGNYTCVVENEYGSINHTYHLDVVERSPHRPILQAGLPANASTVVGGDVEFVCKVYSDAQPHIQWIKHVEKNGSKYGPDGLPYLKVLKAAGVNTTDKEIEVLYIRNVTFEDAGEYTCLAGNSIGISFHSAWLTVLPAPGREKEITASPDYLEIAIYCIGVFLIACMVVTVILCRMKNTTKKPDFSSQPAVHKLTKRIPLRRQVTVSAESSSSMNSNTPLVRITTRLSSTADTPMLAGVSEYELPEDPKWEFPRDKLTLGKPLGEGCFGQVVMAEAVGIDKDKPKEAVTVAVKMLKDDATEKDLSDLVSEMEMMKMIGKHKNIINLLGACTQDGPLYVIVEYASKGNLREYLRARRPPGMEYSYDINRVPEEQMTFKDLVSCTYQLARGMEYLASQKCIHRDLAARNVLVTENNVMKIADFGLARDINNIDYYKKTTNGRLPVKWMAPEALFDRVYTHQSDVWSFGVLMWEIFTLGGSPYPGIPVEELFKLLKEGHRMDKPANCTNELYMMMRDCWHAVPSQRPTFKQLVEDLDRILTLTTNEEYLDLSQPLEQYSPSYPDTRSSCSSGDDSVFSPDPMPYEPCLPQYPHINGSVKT
row,Compound,IC50
1,"C=C(C)C(=O)Nc1ccc(-c2c(C3=CC[C@@H](C(=O)NCC(C)(C)OC)CC3)c3c(N)ncnc3n2C)cc1 (single isomer, unassigned) [Example 431]",0.25 to 1 µM
2,"C=C(C)C(=O)Nc1ccc(-c2c(C3=CC[C@H](C(=O)NCC(C)(C)OC)CC3)c3c(N)ncnc3n2C)cc1 (single isomer, unassigned) [Example 432]",1 to 100 µM
3,"C=C(C)C(=O)Nc1ccc(-c2c(-c3ccc(C(=O)N(C)C[C@H]4CCOC4)cc3)c3c(N)ncnc3n2C)cc1 (single isomer, unassigned) [Example 472]",0.25 to 1 µM
4,"C=C(C)C(=O)Nc1ccc(-c2c(-c3ccc(C(=O)N(C)C[C@@H]4CCOC4)cc3)c3c(N)ncnc3n2C)cc1 (single isomer, unassigned) [Example 473]",0.25 to 1 µM
5,"C=C(C)C(=O)Nc1ccc(-c2c(-c3ccc(C(=O)N4CCCC4)cc3)c3c(N)ncnc3n2C)c([C@H]2CCCO2)c1 (single isomer, unassigned) [Example 509]",0.25 to 1 µM
6,"C=C(C)C(=O)Nc1ccc(-c2c(-c3ccc(C(=O)N4CCCC4)cc3)c3c(N)ncnc3n2C)c([C@@H]2CCCO2)c1 (single isomer, unassigned) [Example 510]",< 0.1 µM
7,"C=C(C)C(=O)Nc1ccc(-c2c(C3=CC[C@@H](Oc4ccn(C)n4)CC3)c3c(N)ncnc3n2C)cc1 (single isomer, unassigned) [Example 549]",1 to 100 µM
8,"C=C(C)C(=O)Nc1ccc(-c2c(C3=CC[C@H](C(=O)N4CCC[C@H]4C#N)CC3)c3c(N)ncnc3n2C)cc1 (single isomer, unassigned) [Example 574]",0.25 to 1 µM
9,"C=C(C)C(=O)Nc1ccc(-c2c(C3=CC[C@H](C(=O)N4CC[C@@H](CO)C4)CC3)c3c(N)ncnc3n2C)cc1 (single isomer, unassigned) [Example 575]",1 to 100 µM
10,"C=C(C)C(=O)Nc1ccc(-c2c(C3=CC[C@H](C(=O)N4CC[C@@H](F)C4)CC3)c3c(N)ncnc3n2C)cc1 (single isomer, unassigned) [Example 576]",1 to 100 µM
11,"Cn1c(-c2ccc(NC(=O)C3=CCC3)cc2)c(C2=CC[C@H](C(=O)N3CCCC3)CC2)c2c(N)ncnc21 (single isomer, unassigned) [Example 579]",0.25 to 1 µM
12,"C=C(C)C(=O)Nc1ccc(-c2c(C3=CC[C@H](C(=O)N4CC[C@@H](OC)C4)CC3)c3c(N)ncnc3n2C)cc1 (single isomer, unassigned) [Example 580]",1 to 100 µM
13,"C=C(C)C(=O)Nc1ccc(-c2c(C3=CC[C@@H](C(=O)N4CC[C@@H](CO)C4)CC3)c3c(N)ncnc3n2C)cc1 (single isomer, unassigned) [Example 583]",0.25 to 1 µM
14,"Cn1c(-c2ccc(NC(=O)[C@H]3CO3)cc2)c(-c2ccc(C(=O)N3CCCC3)cc2)c2c(N)ncnc21 (single isomer, unassigned) [Example 585]",0.1 to 0.25 µM
15,"C=C(C)C(=O)Nc1ccc(-c2c(C3=CC[C@@H](C(=O)N4CC[C@@H](F)C4)CC3)c3c(N)ncnc3n2C)cc1 (single isomer, unassigned) [Example 591]",0.1 to 0.25 µM
16,"C=C(C)C(=O)Nc1ccc(-c2c(C3=CC[C@@H](C(=O)N4CC[C@@H](OC)C4)CC3)c3c(N)ncnc3n2C)cc1 (single isomer, unassigned) [Example 593]",0.25 to 1 µM
17,C=CCC(=O)Nc1ccc(-c2c(-c3ccc(Oc4cccc(C)n4)c(OC)c3)c3c(N)ncnc3n2C)cc1 [Example 2],0.25 to 1 µM
18,C=CC(=O)N1CCCc2cc(-c3c(-c4ccc(Oc5cccc(C)n5)c(OC)c4)c4c(N)ncnc4n3C)ccc21 [Example 3],< 0.1 µM
19,C=CC(=O)N(C)c1ccc(-c2c(-c3ccc(Oc4cccc(C)n4)c(OC)c3)c3c(N)ncnc3n2C)cc1 [Example 6],0.1 to 0.25 µM
20,C=CC(=O)Nc1cccc(-c2c(-c3ccc(Oc4cccc(C)n4)c(OC)c3)c3c(N)ncnc3n2C)c1 [Example 7],< 0.1 µM
21,C=CC(=O)N1Cc2ccc(-c3c(-c4ccc(Oc5cccc(C)n5)c(OC)c4)c4c(N)ncnc4n3C)cc2C1 [Example 8],< 0.1 µM
22,C=CC(=O)N(C)c1ccc(-c2c(-c3ccc(Oc4cccc(C)n4)cc3)c3c(N)ncnc3n2C)cc1 [Example 9],< 0.1 µM

row,Compound,IC50
1,C=CC(=O)N1CCc2cc(-c3c(-c4ccc(Oc5cccc(C)n5)c(OC)c4)c4c(N)ncnc4n3C)ccc21 [Example 10],< 0.1 µM
2,C=CC(=O)Nc1ccc(-c2c(-c3ccc(Oc4cccc(C)n4)c(C)c3)c3c(N)ncnc3n2C)cc1 [Example 19],< 0.1 µM
3,C=CC(=O)N1CCc2cc(-c3c(-c4ccc(Oc5cccc(C)n5)cc4)c4c(N)ncnc4n3C)ccc2C1 [Example 20],0.1 to 0.25 µM
4,C=CC(=O)Nc1ccc(-c2c(-c3ccc(Oc4cccc(C)n4)cc3)c3c(N)ncnc3n2C)cc1C [Example 21],< 0.1 µM
5,C=CC(=O)Nc1cccc(-c2c(-c3ccc(Oc4cccc(C)n4)cc3)c3c(N)ncnc3n2C)c1 [Example 22],< 0.1 µM
6,C=C(C)C(=O)Nc1ccc(-c2c(-c3ccc(Oc4ccccc4)cc3)c3c(N)ncnc3n2C)cc1 [Example 23],0.25 to 1 µM
7,C=CC(=O)Nc1ccc(-c2c(-c3cccc(OC)c3)c3c(N)ncnc3n2C)cc1 [Example 25],< 0.1 µM
8,C=CC(=O)Nc1ccc(-c2c(-c3ccc(Oc4cccc(C)c4)cc3)c3c(N)ncnc3n2C)cc1 [Example 28],< 0.1 µM
9,C=C(C)C(=O)Nc1ccc(-c2c(-c3ccc(Oc4cccc(C)c4)cc3)c3c(N)ncnc3n2C)cc1 [Example 29],0.25 to 1 µM
10,C=C(C)C(=O)Nc1ccc(-c2c(-c3ccc(Oc4ccccc4)c(OC)c3)c3c(N)ncnc3n2C)cc1 [Example 30],0.25 to 1 µM
11,C=C(C)C(=O)Nc1ccc(-c2c(-c3ccc(Oc4cccc(C)c4)c(OC)c3)c3c(N)ncnc3n2C)cc1 [Example 33],0.25 to 1 µM
12,C=CC(=O)Nc1ccc(-c2c(-c3ccc(Oc4cc(C)ccn4)c(OC)c3)c3c(N)ncnc3n2C)cc1 [Example 34],< 0.1 µM
13,C=CC(=O)Nc1ccc(-c2c(Br)c3c(N)ncnc3n2C)cc1 [Example 37],< 0.1 µM
14,C=CC(=O)Nc1ccc(-c2c(-c3ccc(Oc4ccncc4)c(OC)c3)c3c(N)ncnc3n2C)cc1 [Example 39],0.1 to 0.25 µM
15,C=CC(=O)Nc1ccc(-c2c(-c3ccc(Oc4ccc(C)cn4)c(OC)c3)c3c(N)ncnc3n2C)cc1 [Example 40],< 0.1 µM
16,C=CC(=O)Nc1ccc(-c2c(-c3ccc(Oc4cncc(C)c4)c(OC)c3)c3c(N)ncnc3n2C)cc1 [Example 41],< 0.1 µM
17,C=CC(=O)Nc1ccc(-c2c(-c3ccc(Oc4ncccc4C)c(OC)c3)c3c(N)ncnc3n2C)cc1 [Example 42],< 0.1 µM
18,CCC(=O)Nc1ccc(-c2c(-c3ccc(Oc4ncccn4)c(OC)c3)c3c(N)ncnc3n2C)cc1 [Example 43],1 to 100 µM
19,C=CC(=O)Nc1ccc(-c2c(-c3ccc(Oc4ccc(C)nc4)c(OC)c3)c3c(N)ncnc3n2C)cc1 [Example 44],< 0.1 µM
20,C=CC(=O)Nc1ccc(-c2c(-c3ccc(OC)c(OC)c3)c3c(N)ncnc3n2C)cc1 [Example 46],< 0.1 µM
21,C=C(C)C(=O)Nc1ccc(-c2c(-c3ccc(Oc4ncccn4)cc3)c3c(N)ncnc3n2C)cc1 [Example 52],< 0.1 µM
22,C=C(C)C(=O)Nc1ccc(-c2c(-c3cccc(OC)c3)c3c(N)ncnc3n2C)cc1 [Example 55],0.25 to 1 µM

row,Compound,IC50
1,C=CC(=O)Nc1ccc(-c2c(-c3ccc(Nc4ncccn4)c(OC)c3)c3c(N)ncnc3n2C)cc1 [Example 56],< 0.1 µM
2,C=CC(=O)Nc1ccc(-c2c(-c3ccc(N(C)c4ncccn4)c(OC)c3)c3c(N)ncnc3n2C)cc1 [Example 57],0.1 to 0.25 µM
3,C=CC(=O)Nc1ccc(-c2c(-c3ccc(Nc4ncccn4)cc3)c3c(N)ncnc3n2C)cc1 [Example 58],< 0.1 µM
4,C=C(C)C(=O)Nc1ccc(-c2c(-c3ccc(Nc4ncccn4)cc3)c3c(N)ncnc3n2C)cc1 [Example 59],0.1 to 0.25 µM
5,C=CC(=O)Nc1ccc(-c2c(-c3ccc(N(C)c4ncccn4)cc3)c3c(N)ncnc3n2C)cc1 [Example 61],< 0.1 µM
6,C=C(C)C(=O)Nc1ccc(-c2c(-c3ccc(N(C)c4ncccn4)cc3)c3c(N)ncnc3n2C)cc1 [Example 62],1 to 100 µM
7,CCC(=O)Nc1ccc(-c2c(-c3ccc(Oc4ncccn4)cc3)c3c(N)ncnc3n2C)cc1 [Example 63],1 to 100 µM
8,C=C(C)C(=O)Nc1ccc(-c2c(-c3ccc(Oc4ncc(CO)cn4)cc3)c3c(N)ncnc3n2C)cc1 [Example 64],1 to 100 µM
9,C=C(C)C(=O)Nc1ccc(-c2c(-c3ccc(Oc4ncc(CO)cn4)c(OC)c3)c3c(N)ncnc3n2C)cc1 [Example 65],1 to 100 µM
10,CCC(=O)Nc1ccc(-c2c(-c3ccc(Oc4cccc(C)n4)c(OC)c3)c3c(N)ncnc3n2C)cc1 [Example 66],1 to 100 µM
11,CCC(=O)Nc1ccc(-c2c(-c3ccc(Oc4ccccn4)c(OC)c3)c3c(N)ncnc3n2C)cc1 [Example 67],1 to 100 µM
12,C=CC(=O)Nc1ccc(-c2c(-c3ccc(Sc4ncccn4)cc3)c3c(N)ncnc3n2C)cc1 [Example 68],< 0.1 µM
13,C=CC(=O)Nc1ccc(-c2c(-c3ccc(Oc4ncccn4)c(CO)c3)c3c(N)ncnc3n2C)cc1 [Example 71],0.25 to 1 µM
14,C/C=C/C(=O)Nc1ccc(-c2c(-c3cccc(OC)c3)c3c(N)ncnc3n2C)cc1 [Example 72],0.25 to 1 µM
15,CC#CC(=O)Nc1ccc(-c2c(-c3cccc(OC)c3)c3c(N)ncnc3n2C)cc1 [Example 73],0.1 to 0.25 µM
16,C=CC(=O)Nc1ccc(-c2c(C3=CCN(C(=O)C(F)(F)F)CC3)c3c(N)ncnc3n2C)cc1 [Example 74],0.25 to 1 µM
17,C=CC(=O)Nc1ccc(-c2c(C3=CCNCC3)c3c(N)ncnc3n2C)cc1 [Example 75],0.25 to 1 µM
18,C=CC(=O)Nc1ccc(-c2c(-c3ccccc3)c3c(N)ncnc3n2C)cc1 [Example 76],0.1 to 0.25 µM
19,C=C(C)C(=O)Nc1ccc(-c2c(-c3ccc(Oc4cccc(C)n4)cc3)c3c(N)ncnc3n2CCN2CCOCC2)cc1 [Example 79],0.1 to 0.25 µM
20,C=C(C)C(=O)Nc1ccc(-c2c(-c3ccc(Oc4cccc(C)n4)cc3)c3c(N)ncnc3n2CCN(C)C)cc1 [Example 80],0.1 to 0.25 µM
21,C=CC(=O)Nc1ccc(-c2c(-c3ccc(C(=O)c4ccccc4C)c(OC)c3)c3c(N)ncnc3n2C)cc1 [Example 81],< 0.1 µM
